A short description of data set [1]: log P by HPLC on reversed-phase (C18) columns, OECD Guideline 117. The note with it: for chromatographic logP: reversed-phase (C18) HPLC column. The data set is classed as physicochemical. On the procedure: The log P values were determined in accordance with OECD Guideline 117 (EC Directive 92/69/EEC) by HPLC (high-performance liquid chromatography) using reversed-phase (RP) columns (C18), by the following methods: [a] The LC-MS determination in the acidic range is carried out at pH 2.7 with 0.1% aqueous formic acid and acetonitrile (contains 0.1% formic acid) as eluents; linear gradient from 10% acetonitrile to 95% acetonitrile. [b] LC-MS determination in the neutral range is effected at pH 7.8 with 0.001 molar aqueous ammonium hydrogencarbonate solution and acetonitrile as eluents; linear gradient from 10% acetonitrile to 95% acetonitrile. Calibration is carried out using unbranched alkan-2-ones (having 3 to 16 carbon atoms) with known log P values (log P values determined on the basis of the retention times by linear interpolation between two successive alkanones).

Data set [2] has as its system green peach aphid (Myzus persicae). Description: Myzus persicae spray test (Chinese cabbage leaf discs). The data set is classed as in vivo. The note with it: application rate 500 g/ha, after 6 days, 100% = all aphids killed; for pest or weed control at 500 g/ha: Myzus persicae, foliar, 144 h, read-out: efficacy. On the procedure:
Myzus persicae—Spray Test Solvent: 78 parts by weight of acetone • • 1.5 parts by weight of dimethylformamide Emulsifier: alkylaryl polyglycol ether To produce a suitable active ingredient formulation, 1 part by weight of active ingredient is dissolved with the specified parts by weight of solvent and made up with water containing an emulsifier concentration of 1000 ppm until the desired concentration is attained. To produce further test concentrations, the formulation is diluted with emulsifier-containing water. Discs of Chinese cabbage leaves (Brassica pekinensis) infested by all stages of the green peach aphid (Myzus persicae) are sprayed with an active ingredient formulation of the desired concentration. After 6 days, the efficacy in % is determined. 100% means that all the aphids have been killed; 0% means that no aphids have been killed.

The mark [3] stands for this setting: acidic range, pH 2.7, 0.1% aqueous formic acid and acetonitrile, read-out: LogP[a].
The mark [4] stands for this setting: neutral range, pH 7.8, 0.001 molar aqueous ammonium hydrogencarbonate and acetonitrile, read-out: logP[b].
[5] abbreviates: neutral range, pH 7.8, 0.001 molar aqueous ammonium hydrogencarbonate and acetonitrile.
Setting [6] is: acidic range, pH 2.7, 0.1% aqueous formic acid and acetonitrile.

The text below walks through data of US10138254B2, “Bicyclic compounds as pest control agents” (BAYER CROPSCIENCE AKTIENGESELLSCHAFT, priority 2014, dated 2018).

Read-outs that look alike come from different tables or passages of the source.

For `CCSc1ccccc1-c1cnc2nc(-c3cccnc3)sc2c1` [Example 14, 6-[2-(Ethylsulphanyl)phenyl]-2-(pyridin-3-yl)[1,3]thiazolo[4,5-b]pyridine], the chromatographic logP in data set [1] (setting [3]) is 3.12; in data set [1] (setting [4]), 3.13.

`CCSc1cccc(-c2cnc3nc(-c4cccnc4)sc3c2)c1` [Example 10]: the “logP[b]” value in data set [1] (setting [5]) was 3.36.

Compound `CSc1cccc(-c2cnc3nc(-c4cccnc4)sc3c2)c1` [Example 9] came in with an efficacy in data set [2] of 100%. For the same compound, the “logP[b]” value in data set [1] (setting [5]) was 2.96.

For the compound `c1ccc(-c2cnc3nc(-c4cccnc4)sc3c2)cc1` [Example 1], the “LogP[a]” value in data set [1] (setting [6]) is given as 2.47. Besides, the “logP[b]” value in data set [1] (setting [5]) is listed as 2.56.

As for `Cc1cc(C)c(-c2cnc3nc(-c4cccnc4)sc3c2)cc1SCC(F)(F)F` [Example 19, 6-{2,4-Dimethyl-5-[(2,2,2-trifluoroethyl)sulphanyl]phenyl}-2-(pyridin-3-yl)[1,3]thiazolo[4,5-b]pyridine], in data set [2], the pest or weed control at 500 g/ha was 100%. Further, the chromatographic logP amounted to 3.97 in data set [1] (setting [3]) and 3.95 in data set [1] (setting [4]).

Turning to `CC[S+]([O-])c1ccc(-c2cnc3nc(-c4cccnc4)sc3c2)cc1` (stereo not drawn) [Example 12], in data set [1] (setting [6]), the “LogP[a]” value is on record as 1.58. Also, the “logP[b]” value in data set [1] (setting [5]) came out at 1.86.

In the case of `Clc1ccc(-c2cnc3nc(-c4cccnc4)sc3c2)cc1` [Example 8], the “LogP[a]” value in data set [1] (setting [6]) is 2.98. In data set [1] (setting [5]), the “logP[b]” value is given as 3.03.

Regarding `Cc1nn(-c2cnc3nc(-c4cccnc4)sc3c2)c(=S)n1C` [Example 31, 4,5-Dimethyl-2-[2-(pyridin-3-yl)[1,3]thiazolo[4,5-b]pyridin-6-yl]-2,4-dihydro-3H-1,2,4-triazole-3-thione], the pest or weed control at 500 g/ha in data set [2] came to 90%. Besides, the chromatographic logP in data set [1] (setting [3]) was determined as 0.97; in data set [1] (setting [4]), 1.21.

Take `FC(F)(F)c1cnn(-c2cnc3nc(-c4cccnc4)sc3c2)c1` [Example 28]: the “LogP[a]” value in data set [1] (setting [6]) was determined as 2.48. Moreover, the “logP[b]” value in data set [1] (setting [5]) turned out to be 2.53.

As for `Cc1ccccc1-c1cnc2nc(-c3cccnc3)sc2c1` [Example 2, 6-(2-Methylphenyl)-2-(pyridin-3-yl)[1,3]thiazolo[4,5-b]pyridine], the pest or weed control at 500 g/ha in data set [2] came out at 100%. In addition, the results for the chromatographic logP in data set [1] (setting [3]) and in data set [1] (setting [4]) were 2.76 and 2.8, respectively.

With `Cc1cccc(-c2cnc3nc(-c4cccnc4)sc3c2)c1` [Example 3], the “LogP[a]” value in data set [1] (setting [6]) is 2.91. Also, in data set [1] (setting [5]), the “logP[b]” value came to 2.95.

`Cn1cnn(-c2cnc3nc(-c4cccnc4)sc3c2)c1=S` [Example 29]: the “LogP[a]” value in data set [1] (setting [6]) is 1.00. For the same compound, the “logP[b]” value in data set [1] (setting [5]) is recorded as 1.07.

For the compound `O=C(Nc1cccc(SC(F)(F)F)c1)c1cnc2nc(-c3cncc(F)c3)sc2c1` [Example 57, 2-(5-Fluoropyridin-3-yl)-N-{3-[(trifluoromethyl)sulphanyl]phenyl}[1,3]thiazolo[4,5-b]pyridine-6-carboxamide], the chromatographic logP in data set [1] (setting [3]) is 3.53.

`CC[S+]([O-])c1ccc(-c2cnc3nc(-c4ccc[n+]([O-])c4)sc3c2)cc1` (stereo not drawn) [Example 13] had an efficacy in data set [2] of 90%. The “LogP[a]” value in data set [1] (setting [6]) came out at 1.85. Moreover, the “logP[b]” value in data set [1] (setting [5]) was determined as 1.85.

For the compound `CS(=O)(=O)CCNC(=O)c1cnc2nc(-c3cccnc3)sc2c1` [Example 54, N-[2-(Methylsulphonyl)ethyl]-2-(pyridin-3-yl)[1,3]thiazolo[4,5-b]pyridine-6-carboxamide], in data set [1] (setting [3]), the chromatographic logP was determined as 0.84.

For `Brc1cnc2nc(-c3cccnc3)sc2c1` [I-a-1, 6-bromo-2-(pyridin-3-yl)[1,3]thiazolo[4,5-b]pyridine], in data set [1] (setting [4]), the chromatographic logP worked out at 1.95.

Regarding `Fc1ccccc1-c1cnc2nc(-c3cccnc3)sc2c1` [Example 5], the “LogP[a]” value in data set [1] (setting [6]) stood at 2.51. For the same compound, the “logP[b]” value in data set [1] (setting [5]) came out at 2.54.

Take `CCSc1ccc(-c2cnc3nc(-c4cccnc4)sc3c2)cc1` [Example 11]: the “LogP[a]” value in data set [1] (setting [6]) is 3.34. Further, the “logP[b]” value in data set [1] (setting [5]) worked out at 3.37.

On to `CC[S+]([O-])c1ccccc1-c1cnc2nc(-c3ccc[n+]([O-])c3)sc2c1` (stereo not drawn) [Example 16, 6-[2-(Ethylsulphinyl)phenyl]-2-(1-oxidopyridin-3-yl)[1,3]thiazolo[4,5-b]pyridine], for which the pest or weed control at 500 g/ha in data set [2] came to 90%. Moreover, the values for the chromatographic logP in data set [1] (setting [3]) and in data set [1] (setting [4]) were 1.86 and 1.87, respectively.

Turning to `CC[S+]([O-])c1ccccc1-c1cnc2nc(-c3cccnc3)sc2c1` (stereo not drawn) [Example 15, 6-[2-(Ethylsulphinyl)phenyl]-2-(pyridin-3-yl)[1,3]thiazolo[4,5-b]pyridine], the chromatographic logP amounted to 1.58 in data set [1] (setting [3]) and 1.59 in data set [1] (setting [4]).

As for `c1ccc(Nc2cnc3nc(-c4cccnc4)sc3c2)cc1` [Example 24], the “LogP[a]” value in data set [1] (setting [6]) is 2.25. Moreover, the “logP[b]” value in data set [1] (setting [5]) came to 2.27.

In data set [2], `Cc1ccc(-c2cnc3nc(-c4cccnc4)sc3c2)cc1SCC(F)(F)F` [Example 17] came in with an efficacy of 90%. Also, the “LogP[a]” value in data set [1] (setting [6]) is 3.74. In addition, the “logP[b]” value in data set [1] (setting [5]) came to 3.68.

Regarding `Cc1cc(F)c(-c2cnc3nc(-c4cccnc4)sc3c2)cc1[S+]([O-])CC(F)(F)F` (stereo not drawn) [Example 23, 6-{2-Fluoro-4-methyl-5-[(2,2,2-trifluoroethyl)sulphinyl]phenyl}-2-(pyridin-3-yl)[1,3]thiazolo[4,5-b]pyridine], the pest or weed control at 500 g/ha in data set [2] amounted to 90%. The results for the chromatographic logP in data set [1] (setting [3]) and in data set [1] (setting [4]) were 2.5 and 2.46, respectively.

`Clc1cccc(-c2cnc3nc(-c4cccnc4)sc3c2)c1` [Example 7, 6-(3-Chlorophenyl)-2-(pyridin-3-yl)[1,3]thiazolo[4,5-b]pyridine]: the pest or weed control at 500 g/ha in data set [2] was 100%. The chromatographic logP in data set [1] (setting [3]) was determined as 2.98; in data set [1] (setting [4]), 3.01.

`O=C(Nc1cccc([S+]([O-])C(F)(F)F)c1)c1cnc2nc(-c3cncc(F)c3)sc2c1` (stereo not drawn) [Example 58, 2-(5-Fluoropyridin-3-yl)-N-{3-[(trifluoromethyl)sulphinyl]phenyl}[1,3]thiazolo[4,5-b]pyridine-6-carboxamide]: the chromatographic logP in data set [1] (setting [3]) came to 2.54.

Consider `Cc1nn(-c2cnc3nc(-c4cccnc4)sc3c2)c(=O)n1C` [Example 30, 4,5-Dimethyl-2-[2-(pyridin-3-yl)[1,3]thiazolo[4,5-b]pyridin-6-yl]-2,4-dihydro-3H-1,2,4-triazol-3-one], for which the pest or weed control at 500 g/ha in data set [2] was 100%. Also, the chromatographic logP was found to be 1.23 in data set [1] (setting [3]) and 1.42 in data set [1] (setting [4]).

With `Cc1ccc(-c2cnc3nc(-c4cccnc4)sc3c2)cc1[S+]([O-])CC(F)(F)F` (stereo not drawn) [Example 18], the efficacy in data set [2] turned out to be 90%. Besides, the “LogP[a]” value in data set [1] (setting [6]) was determined as 2.4. Besides, in data set [1] (setting [5]), the “logP[b]” value was found to be 2.34.

The compound `Cc1ccc(-c2cnc3nc(-c4cccnc4)sc3c2)cc1` [Example 4] displayed an efficacy in data set [2] of 100%. For the same compound, the “LogP[a]” value in data set [1] (setting [6]) is listed as 2.91. Moreover, the “logP[b]” value in data set [1] (setting [5]) is on record as 2.96.

For the compound `Clc1ccccc1-c1cnc2nc(-c3cccnc3)sc2c1` [Example 6], the efficacy in data set [2] was 100%. In addition, the “LogP[a]” value in data set [1] (setting [6]) stood at 2.77. Further, the “logP[b]” value in data set [1] (setting [5]) is listed as 2.78.

On to `FC(F)(F)c1ccn(-c2cnc3nc(-c4cccnc4)sc3c2)n1` [Example 27], for which, in data set [1] (setting [4]), the chromatographic logP is 2.57.

For the compound `CSCCNC(=O)c1cnc2nc(-c3cccnc3)sc2c1` [Example 52, N-[2-(Methylsulphanyl)ethyl]-2-(pyridin-3-yl)[1,3]thiazolo[4,5-b]pyridine-6-carboxamide], the chromatographic logP in data set [1] (setting [3]) was 1.39.

Take `c1cncc(-c2nc3ncc(-n4cccn4)cc3s2)c1` [Example 26, 6-(1H-Pyrazol-1-yl)-2-(pyridin-3-yl)[1,3]thiazolo[4,5-b]pyridine]: in data set [2], the pest or weed control at 500 g/ha is 90%. In addition, the chromatographic logP in data set [1] (setting [4]) came to 1.62.

As to `Cc1cc(C)c([S+]([O-])CC(F)(F)F)cc1-c1cnc2nc(-c3cccnc3)sc2c1` (stereo not drawn) [Example 20, 6-{2,4-Dimethyl-5-[(2,2,2-trifluoroethyl)sulphinyl]phenyl}-2-(pyridin-3-yl)[1,3]thiazolo[4,5-b]pyridine], the pest or weed control at 500 g/ha in data set [2] turned out to be 90%. Besides, the chromatographic logP in data set [1] (setting [3]) worked out at 2.54; in data set [1] (setting [4]) it was 2.52.

As to `Clc1cccc(Nc2cnc3nc(-c4cccnc4)sc3c2)c1` [Example 25, N-(3-Chlorophenyl)-2-(pyridin-3-yl)[1,3]thiazolo[4,5-b]pyridin-6-amine], the pest or weed control at 500 g/ha in data set [2] came out at 90%. Further, the chromatographic logP came out at 2.66 in data set [1] (setting [3]) and 2.69 in data set [1] (setting [4]).
